Active and inactive are the calls of the source. The rule behind the calls is not given here.
Legend:
Cyperus difformis = assay: Herbicidal activity against Cyperus difformis assessed as phytotoxic activity ratings (0- no effect to 5-complete killing rating scale) at 100 g/a measured after 3 weeks post compound treatment under green house conditions; assay type: functional
Echinochloa oryzicola = assay: Herbicidal activity against Echinochloa oryzicola assessed as phytotoxic activity ratings (0- no effect to 5-complete killing rating scale) at 100 g/a measured after 3 weeks post compound treatment under green house conditions; assay type: functional
Oryza sativa [1] = assay: Phytotoxicity against transplanted Oryza sativa (rice) seedlings assessed as phytotoxic activity ratings (0- no effect to 5-complete killing rating scale) at 100 g/a measured after 3 weeks post compound treatment under green house conditions; assay type: organism-based; conditions: in vivo, 504 h
[2] = test system: Schoenoplectiella juncoides; assay: Herbicidal activity against Schoenoplectiella juncoides var. Hotarui Ohwi assessed as phytotoxic activity ratings (0- no effect to 5-complete killing rating scale) at 100 g/a measured after 3 weeks post compound treatment under green house conditions; assay type: functional
Oryza sativa [3] = assay: Phytotoxicity against directly seeded Oryza sativa (rice) seedlings assessed as phytotoxic activity ratings (0- no effect to 5-complete killing rating scale) at 100 g/a measured after 3 weeks post compound treatment under green house conditions; assay type: organism-based; conditions: in vivo, 504 h
Cyperus serotinus = assay: Herbicidal activity against Cyperus serotinus assessed as phytotoxic activity ratings (0- no effect to 5-complete killing rating scale) at 3.1 to 100 g/a measured after 3 weeks post compound treatment under green house conditions; assay type: functional

SMILES | Activity (Cyperus difformis) | Activity (Echinochloa oryzicola) | Activity (Oryza sativa [1]) | Activity [2] | Activity (Oryza sativa [3]) | Activity (Cyperus serotinus)
C[C@H](NC(=O)Nc1ccccc1Cl)c1ccccc1 | 10% | 0% | 0% | 0% | 0% | inactive
C[C@H](NC(=O)Nc1cc(C(F)(F)F)cc(C(F)(F)F)c1)c1ccccc1 | 0% | 0% | 0% | 0% | 0% | inactive
COc1ccc(NC(=O)N[C@@H](C)c2ccccc2)cc1 | 0% | 0% | 0% | 0% | 0% | inactive
C[C@@H](NC(=O)Nc1ccc(I)cc1)c1ccccc1 | 0% | 0% | 0% | 0% | 0% | inactive
C[C@@H](NC(=O)Nc1cccc(Cl)c1Cl)c1ccccc1 | 0% | 0% | 0% | 0% | 0% | inactive
CCCCCc1ccc(NC(=O)N[C@@H](C)c2ccccc2)cc1 | 0% | 0% | 0% | 0% | 0% | inactive
CCOC(=O)c1ccc(NC(=O)N[C@@H](C)c2ccccc2)cc1 | 0% | 0% | 0% | 0% | 0% | inactive
C[C@@H](NC(=O)Nc1cccc(Cl)c1)c1ccccc1 | 10% | 0% | 0% | 0% | 0% | inactive
CC(=O)c1cccc(NC(=O)N[C@H](C)c2ccccc2)c1 | 0% | 0% | 0% | 0% | 0% | inactive
C[C@@H](NC(=O)Nc1ccc(F)cc1F)c1ccccc1 | 0% | 0% | 0% | 0% | 0% | inactive
CCc1cccc(CC)c1NC(=O)N[C@H](C)c1ccccc1 | 0% | 0% | 0% | 0% | 0% | inactive
C[C@H](NC(=O)Nc1cccc(C(F)(F)F)c1F)c1ccccc1 | 0% | 0% | 0% | 0% | 0% | inactive
CCOC(=O)c1cccc(NC(=O)N[C@@H](C)c2ccccc2)c1 | 0% | 0% | 0% | 0% | 0% | inactive
C[C@H](NC(=O)Nc1ccc(F)cc1F)c1ccccc1 | 0% | 0% | 0% | 0% | 0% | inactive
C[C@H](NC(=O)Nc1ccc(C(C)(C)C)cc1)c1ccccc1 | 0% | 10% | 0% | 0% | 0% | inactive
CCCCc1ccc(NC(=O)N[C@H](C)c2ccccc2)cc1 | 0% | 10% | 0% | 0% | 10% | inactive
C[C@H](NC(=O)Nc1ccc(F)c(F)c1)c1ccccc1 | 0% | 0% | 0% | 0% | 0% | inactive
COc1ccccc1NC(=O)N[C@@H](C)c1ccccc1 | 0% | 0% | 0% | 0% | 0% | inactive
C[C@@H](NC(=O)Nc1ccccc1Br)c1ccccc1 | 10% | 0% | 0% | 0% | 0% | inactive
CCOC(=O)c1ccc(NC(=O)N[C@H](C)c2ccccc2)cc1 | 0% | 0% | 0% | 0% | 0% | inactive
C[C@H](NC(=O)Nc1ccc(F)cc1)c1ccccc1 | 0% | 0% | 0% | 0% | 0% | inactive

SMILES | Activity (Cyperus difformis) | Activity (Echinochloa oryzicola) | Activity (Oryza sativa [1]) | Activity [2] | Activity (Oryza sativa [3]) | Activity (Cyperus serotinus)
CCc1cccc(CC)c1NC(=O)N[C@@H](C)c1ccccc1 | 0% | 0% | 0% | 0% | 0% | inactive
CC(C)c1ccc(NC(=O)N[C@H](C)c2ccccc2)cc1 | 0% | 0% | 0% | 0% | 0% | inactive
C[C@H](NC(=O)Nc1cccc(Cl)c1Cl)c1ccccc1 | 0% | 0% | 0% | 0% | 0% | inactive
CCOC(=O)c1cccc(NC(=O)N[C@H](C)c2ccccc2)c1 | 0% | 0% | 0% | 0% | 0% | inactive
C[C@@H](NC(=O)Nc1cccc(F)c1F)c1ccccc1 | 10% | 0% | 0% | 0% | 0% | inactive
C[C@@H](NC(=O)Nc1ccc(C(C)(C)C)cc1)c1ccccc1 | 0% | 10% | 0% | 0% | 0% | inactive
C[C@H](NC(=O)Nc1cc(C(F)(F)F)ccc1F)c1ccccc1 | 0% | 0% | 0% | 0% | 0% | inactive
C[C@@H](NC(=O)Nc1ccc(F)cc1)c1ccccc1 | 0% | 0% | 0% | 0% | 0% | inactive
C[C@@H](NC(=O)Nc1cc(F)ccc1F)c1ccccc1 | 0% | 0% | 0% | 0% | 0% | inactive
C[C@H](NC(=O)Nc1ccccc1I)c1ccccc1 | 10% | 0% | 0% | 0% | 0% | inactive
CCOC(=O)c1ccccc1NC(=O)N[C@@H](C)c1ccccc1 | 0% | 10% | 0% | 0% | 0% | inactive
C[C@H](NC(=O)Nc1ccc(I)cc1)c1ccccc1 | 0% | 0% | 0% | 0% | 0% | inactive
C[C@@H](NC(=O)Nc1cc(C(F)(F)F)cc(C(F)(F)F)c1)c1ccccc1 | 0% | 0% | 0% | 0% | 0% | inactive
CC(=O)c1ccc(NC(=O)N[C@H](C)c2ccccc2)cc1 | 0% | 40% | 0% | 0% | 0% | inactive
C[C@@H](NC(=O)Nc1cc(C(C)(C)C)ccc1C(C)(C)C)c1ccccc1 | 0% | 0% | 0% | 0% | 0% | inactive
C[C@H](NC(=O)Nc1cccc(Cl)c1)c1ccccc1 | 10% | 0% | 0% | 0% | 0% | inactive
CCCCCCCc1ccc(NC(=O)N[C@H](C)c2ccccc2)cc1 | 0% | 0% | 0% | 0% | 0% | inactive
C[C@@H](NC(=O)Nc1cccc(I)c1)c1ccccc1 | 10% | 0% | 0% | 0% | 0% | inactive
CC(=O)c1cccc(NC(=O)N[C@@H](C)c2ccccc2)c1 | 0% | 0% | 0% | 0% | 0% | inactive
CCCCCCc1ccc(NC(=O)N[C@@H](C)c2ccccc2)cc1 | 0% | 0% | 0% | 0% | 0% | inactive

Source: ChEMBL document CHEMBL3046383, “Enantioselective Herbicidal Activity of Chiral α-Methylbenzylphenylureas against Cyperaceae and Echinochloa Paddy Weeds” (Biosci Biotechnol Biochem, 1998)
